40 molecules from ChEMBL document CHEMBL3407414, “Discovery of AZD3147: a potent, selective dual inhibitor of mTORC1 and mTORC2” (J Med Chem, 2015) can be followed below.

Some results are limits rather than exact numbers.

In general, logD refers to lipophilicity at a set pH, counting ionised and neutral species. A low value points to a more hydrophilic compound. As usually defined, the Papp A→B is how fast a substance crosses the layer from the apical side. What is called Papp B→A is how fast a substance crosses the layer from the basolateral side. The term bioavailability denotes dose-corrected exposure relative to a reference, in per cent. A word on the clearance: it is the volume of plasma or blood freed of the substance per unit of time. High values mean a high capacity for elimination, low ones a low capacity for elimination. As usually defined, the half-life is how long it takes for the measured level to halve. Higher therefore signals slow decline.

The nature of data set [1]: Lipophilicity, log D of the compound. Format: physicochemical. The conditions noted are these: octanol/water.
A short description of data set [2]: Intrinsic clearance in human hepatocytes assessed per million cells. Format: ADME, cell-based, Hepatocyte. The note with it: read-out: CLH.
Data set [3] relates to human MDR1. In words: Apparent permeability from apical to basolateral side of MDCK2 cells expressing human MDR1 at 10 uM. Format: ADME, cell-based, Canis lupus familiaris, MDCK-II. The conditions noted are these: dog, MDCK-MDR1.
In data set [4] the test system is human MDR1. In words: Apparent permeability from basolateral to apical side of MDCK2 cells expressing human MDR1 at 10 uM. Format: ADME, cell-based, Canis lupus familiaris, MDCK-II. The note with it: dog, MDCK-MDR1.
Data set [5] is described as follows: Oral bioavailability in Beagle dog at 3 to 10 umol/kg. It counts as ADME, organism-based, Canis lupus familiaris. The conditions noted are these: in vivo.
The nature of data set [6]: Volume of distribution at steady state in Beagle dog. The note with it: in vivo, read-out: Vdss. Format: ADME, organism-based, Canis lupus familiaris.
Data set [7] is described as follows: Volume of distribution at steady state in CD-1 mouse. Format: ADME, organism-based. The note with it: in vivo, read-out: Vdss.
Data set [8] in a line: Oral bioavailability in CD-1 mouse at 5 to 20 umol/kg. Format: ADME, organism-based. The conditions noted are these: in vivo.
The nature of data set [9]: Clearance in Beagle dog at 1 to 3 umol/kg, iv. Format: ADME, organism-based, Canis lupus familiaris. The conditions noted are these: in vivo.
Data set [10] can be described thus: Half life in Beagle dog. It counts as ADME, organism-based, Canis lupus familiaris. The note with it: in vivo.
Data set [11] in a line: Half life in CD-1 mouse. It counts as ADME, organism-based. The note with it: in vivo.
Data set [12] can be described thus: Clearance in CD-1 mouse at 2.5 to 10 umol/kg, iv. Format: ADME, organism-based. The note with it: in vivo.

For the molecule `CS(=O)(=O)Cc1cc(N2CCOCC2)nc(-c2ccc(NC(=O)Nc3ccc(F)cc3)cc2)n1`, in [1], the logD is > 3.2.
The same measure, in the same setting: in the case of `CCNC(=O)Nc1ccc(-c2nc(CS(C)(=O)=O)cc(N3CCOC[C@@H]3C)n2)cc1` it was 1.93; in that of `CNC(=O)Nc1ccc(-c2nc(CS(C)(=O)=O)cc(N3CCOC[C@@H]3C)n2)cc1`, 1.54.
On the same count and under the same terms, the result for `CC(C)NC(=O)Nc1ccc(-c2nc(CS(C)(=O)=O)cc(N3CCOC[C@@H]3C)n2)cc1` reads 2.45; that for `C[C@H]1COCCN1c1cc(CS(C)(=O)=O)nc(-c2ccc(NC(=O)NC3CC3)cc2)n1`, 1.9; that for `C[C@H]1COCCN1c1cc(CS(C)(=O)=O)nc(-c2ccc(NC(=O)NCCO)cc2)n1`, 1.
In data set [1], `C[C@H]1COCCN1c1cc(CS(C)(=O)=O)nc(-c2ccc(NC(=O)NCCN(C)C)cc2)n1` displayed a logD of 0.3.
Turning to `C[C@H]1COCCN1c1cc(CS(C)(=O)=O)nc(-c2ccc(NC(=O)Nc3ccccc3)cc2)n1`, the logD in data set [1] came out at 3.3.
On the same count and under the same terms, in the case of `C[C@H]1COCCN1c1cc(CS(C)(=O)=O)nc(-c2ccc(NC(=O)Nc3ccc(F)cc3)cc2)n1` it was 3.8; in that of `COc1ccc(NC(=O)Nc2ccc(-c3nc(CS(C)(=O)=O)cc(N4CCOC[C@@H]4C)n3)cc2)cc1`, 2.88.
For the molecule `C[C@H]1COCCN1c1cc(CS(C)(=O)=O)nc(-c2ccc(NC(=O)Nc3cnn(C)c3)cc2)n1`, in [1], the logD was 1.85.
On the same count and under the same terms, in the case of `COc1ccc(CNC(=O)Nc2ccc(-c3nc(CS(C)(=O)=O)cc(N4CCOC[C@@H]4C)n3)cc2)cc1` it was 2.8; in that of `CNC(=O)Nc1ccc(-c2nc(CS(=O)(=O)C3CC3)cc(N3CCOC[C@@H]3C)n2)cc1`, 2.
Still for that read-out and setting: the result for `CNC(=O)Nc1ccc(-c2nc(CS(=O)(=O)C3CCCCC3)cc(N3CCOC[C@@H]3C)n2)cc1` reads 3.6; that for `C[C@H]1COCCN1c1cc(CS(=O)(=O)CCCO)nc(-c2ccc(NC(=O)NC3CC3)cc2)n1`, 1.7.
On the same count and under the same terms, in the case of `CNC(=O)Nc1ccc(-c2nc(CS(=O)(=O)c3ccccc3)cc(N3CCOC[C@@H]3C)n2)cc1` it was 2.65; in that of `CNC(=O)Nc1ccc(-c2nc(CS(=O)(=O)c3ccncc3)cc(N3CCOC[C@@H]3C)n2)cc1`, 2.1.
`C[C@H]1COCCN1c1cc(CS(C)(=O)=O)nc(-c2ccc(NC(=S)NC3CC3)cc2)n1`: the logD in data set [1] was determined as 1.74.
In data set [1], `CNC(=O)Nc1ccc(-c2nc(CS(C)(=O)=O)cc(N3CCOC[C@@H]3C)n2)cc1OC` displayed a logD of 1.79.
Still for that read-out and setting: the result for `CNC(=O)Nc1ccc(-c2nc(CS(C)(=O)=O)cc(N3CCOC[C@@H]3C)n2)cc1C` reads 1.5.
In the case of `CNC(=O)Nc1ccc(-c2nc(N3CCOC[C@@H]3C)cc(C(C)(C)S(C)(=O)=O)n2)cc1`, in data set [2], the hepatocyte CLint was 36.3 µL/min/1e6 cells.
In turn, `C[C@H]1COCCN1c1cc(C(C)(C)S(C)(=O)=O)nc(-c2ccc(NC(=O)NC3CC3)cc2)n1` yielded a logD in data set [1] of 2.62. Further, the hepatocyte CLint in data set [2] was determined as 50 µL/min/1e6 cells.
The corresponding values for `C[C@H]1COCCN1c1cc(C2(S(C)(=O)=O)CC2)nc(-c2ccc(NC(=O)NC3CC3)cc2)n1` are 2.62 and 37.8 µL/min/1e6 cells.
With `C[C@H]1COCCN1c1cc(C2(S(C)(=O)=O)CCC2)nc(-c2ccc(NC(=O)NC3CC3)cc2)n1`, the logD in data set [1] is 3.3.
On the same count and under the same terms, the result for `C[C@H]1COCCN1c1cc(C2(S(C)(=O)=O)CCCC2)nc(-c2ccc(NC(=O)NC3CC3)cc2)n1` reads > 3.4; that for `C[C@H]1COCCN1c1cc(C2(S(C)(=O)=O)CCOCC2)nc(-c2ccc(NC(=O)NC3CC3)cc2)n1`, 2.8.
Same read-out and setting: in the case of `C[C@H]1COCCN1c1cc(C2(S(C)(=O)=O)CCC2)nc(-c2ccc(NC(=O)NCCO)cc2)n1` it was 2.4; in that of `C[C@H]1COCCN1c1cc(C2(S(=O)(=O)CCCO)CC2)nc(-c2ccc(NC(=O)NC3CC3)cc2)n1`, 2.4.
The same measure, in the same setting: in the case of `C[C@H]1COCCN1c1cc(C(C)(C)S(C)(=O)=O)nc(-c2ccc(NC(=S)NCCO)cc2)n1` it was 2.15; in that of `C[C@H]1COCCN1c1cc(C2(S(=O)(=O)C3CC3)CC2)nc(-c2ccc(NC(=O)NC3CC3)cc2)n1`, 2.94; in that of `C[C@H]1COCCN1c1cc(C2(S(=O)(=O)c3ccc(F)cc3)CC2)nc(-c2ccc(NC(=O)NCCO)cc2)n1`, 3.01.
As for `CNC(=O)Nc1ccc(-c2nc(N3CCOC[C@@H]3C)cc(C3(S(=O)(=O)c4ccncc4)CC3)n2)cc1`, the logD in data set [1] came out at 2.5.
Still for that read-out and setting: in the case of `C[C@H]1COCCN1c1cc(C2(S(=O)(=O)C3CC3)CC2)nc(-c2ccc(NC(=O)NCCO)cc2)n1` it was 2.1.
With `C[C@H]1COCCN1c1cc(C2(S(C)(=O)=O)CC2)nc(-c2ccc(NC(=S)NCCO)cc2)n1`, the Papp A→B at 10 µM in the data set with human MDR1 [3] was 0.07 ×10⁻⁶ cm/s. For the same molecule, the Papp B→A at 10 µM with human MDR1 [4] worked out at 17 ×10⁻⁶ cm/s. For the same molecule, in data set [1], the logD was 1.78.
The corresponding values for `C[C@H]1COCCN1c1cc(C2(S(=O)(=O)c3ccccc3)CC2)nc(-c2ccc(NC(=O)NCCO)cc2)n1` are 0.18 ×10⁻⁶ cm/s, 24 ×10⁻⁶ cm/s and 2.8.
For `C[C@H]1COCCN1c1cc(C2(S(=O)(=O)c3ccccc3)CC2)nc(-c2ccc(NC(=O)NCCCO)cc2)n1`, in the data set on human MDR1 [3], the Papp A→B at 10 µM came out at 0.15 ×10⁻⁶ cm/s. Also, in the data set on human MDR1 [4], the Papp B→A at 10 µM amounted to 31 ×10⁻⁶ cm/s. Further, in [1], the logD turned out to be 2.85.
Regarding `C[C@H]1COCCN1c1cc(C2(S(=O)(=O)C3CC3)CC2)nc(-c2ccc(NC(=S)NCCO)cc2)n1`, the Papp A→B at 10 µM in the data set with human MDR1 [3] came out at 5.6 ×10⁻⁶ cm/s. For the same molecule, the bioavailability in [5] is 73%; in [8], 61%. Moreover, the Vd is 2 L/kg in [6] and 2.3 L/kg in [7]. Besides, the Papp B→A at 10 µM in the data set on human MDR1 [4] came out at 43 ×10⁻⁶ cm/s. This molecule registered a logD in data set [1] of 2.1. For the same molecule, the clearance in [9] was 16 mL/min/kg; in data set [12], 8 mL/min/kg. Besides, the half-life is 1.9 h in data set [10] and 0.9 h in data set [11].
For the molecule `C[C@H]1COCCN1c1cc(C2(S(=O)(=O)CCCO)CC2)nc(-c2ccc(NC(=S)NC3CC3)cc2)n1`, the Papp A→B at 10 µM in the data set on human MDR1 [3] was 0.18 ×10⁻⁶ cm/s. The Papp B→A at 10 µM in the data set on human MDR1 [4] is 22 ×10⁻⁶ cm/s. Moreover, the logD in data set [1] is 2.2.
As for `C[C@H]1COCCN1c1cc(C2(S(=O)(=O)CCCO)CC2)nc(-c2ccc(NC(=S)NCCO)cc2)n1`, in data set [1], the logD was 1.6.
Consider `CNC(=O)c1cccc(-c2ccc3c(N4CCOC[C@@H]4C)nc(N4CCOC[C@@H]4C)nc3n2)c1` [VISTUSERTIB], for which the hepatocyte CLint in [2] is < 4.2 µL/min/1e6 cells.
